Measured values from patent US10987359B2, “Oxadiazepinone derivatives and methods of treating hepatitis B infections” (priority 2016, dated 2021).

Test system: HBV
Experiment: HBV replication inhibition assay (BDNA assay) in HepG2.2.15 cells
Assay type: cell-based
Conditions: Hepatitis B virus, HepG2.2.15, HBV replication assay (BDNA assay), HepG2.2.15 cells; read-out: DNA EC50
Outline: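 Supernatant encapsidated HBV DNA was measured by bDNA after DNase digestion and proteinase K release. Stably HBV-integrated HepG2.2.15 cells had two 3-day compound exposures (0.5% DMSO). Signals were background-subtracted and normalized to DMSO wells, and EC50 was obtained by four-parameter fit.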

SMILES | EC50 [nM]
CN1O[C@H](CNCC(F)F)Cn2nc3c(c2C1=O)CN(C(=O)Nc1ccc(F)c(C(F)(F)F)c1)CC3 (stereo in doubt) [Compound 194_E1, (S*)-4-4(2,2-difluoroethyl)amino)methyl)-N-(4-fluoro-3-(trifluoromethyl)phenyl)-2-methyl-1-oxo-1,4,5,8,9,11-hexahydropyrido[4′,3′:3,4]pyrazolo[5,1-d][1,2,5]oxadiazepine-10(2H)-carboxamide] | 1 to 100
CN1OC(CO)Cn2nc3c(c2C1=O)CN(C(=O)Nc1cccc(Br)c1)CC3 (centres unmarked) [Compound 001, N-(3-bromophenyl)-4-(hydroxymethyl)-2-methyl-1-oxo-1,4,5,8,9,11-hexahydropyrido[4′,3′:3,4]pyrazolo[5,1-d][1,2,5]oxadiazepine-10(2H)-carboxamide] | 1 to 100
Cc1cccc(NC(=O)N2CCc3nn4c(c3C2)C(=O)N(C)OC(CO)C4)c1 (centres unmarked) [Compound 002, 4-(hydroxymethyl)-2-methyl-1-oxo-N-(m-tolyl)-1,4,5,8,9,11-hexahydropyrido[4′,3′:3,4]pyrazolo[5,1-d][1,2,5]oxadiazepine-10(2H)-carboxamide] | 1 to 100
CN1OC(CO)Cn2nc3c(c2C1=O)CN(C(=O)Nc1ccnc(Cl)c1F)CC3 (centres unmarked) [Compound 003, N-(2-chloro-3-fluoropyridin-4-yl)-4-(hydroxymethyl)-2-methyl-1-oxo-1,4,5,8,9,11-hexahydropyrido[4′,3′:3,4]pyrazolo[5,1-d][1,2,5]oxadiazepine-10(2H)-carboxamide] | 100 to 500
CN1OC(CO)Cn2nc3c(c2C1=O)CN(C(=O)Nc1cccc(Br)c1F)CC3 (centres unmarked) [Compound 004, N-(3-bromo-2-fluorophenyl)-4-(hydroxymethyl)-2-methyl-1-oxo-1,4,5,8,9,11-hexahydropyrido[4′,3′:3,4]pyrazolo[5,1-d][1,2,5]oxadiazepine-10(2H)-carboxamide] | 1 to 100
CN1OC(CO)Cn2nc3c(c2C1=O)CN(C(=O)Nc1ccc(F)c(F)c1)CC3 (centres unmarked) [Compound 005, N-(3,4-difluorophenyl)-4-(hydroxymethyl)-2-methyl-1-oxo-1,4,5,8,9,11-hexahydropyrido[4′,3′:3,4]pyrazolo[5,1-d][1,2,5]oxadiazepine-10(2H)-carboxamide] | 1 to 100
CN1OC(CO)Cn2nc3c(c2C1=O)CN(C(=O)Nc1cc(F)c(F)c(F)c1)CC3 (centres unmarked) [Compound 006, 4-(hydroxymethyl)-2-methyl-1-oxo-N-(3,4,5-trifluorophenyl)-1,4,5,8,9,11-hexahydropyrido[4′,3′:3,4]pyrazolo[5,1-d][1,2,5]oxadiazepine-10(2H)-carboxamide] | 1 to 100
CN1OC(CO)Cn2nc3c(c2C1=O)CN(C(=O)Nc1ccc(F)c(Cl)c1F)CC3 (centres unmarked) [Compound 007, N-(3-chloro-2,4-difluorophenyl)-4-(hydroxymethyl)-2-methyl-1-oxo-1,4,5,8,9,11-hexahydropyrido[4′,3′:3,4]pyrazolo[5,1-d][1,2,5]oxadiazepine-10(2H)-carboxamide] | 1 to 100
CN1OC(CO)Cn2nc3c(c2C1=O)CN(C(=O)Nc1cccc(C(F)(F)F)c1)CC3 (centres unmarked) [Compound 008, 4-(hydroxymethyl)-2-methyl-1-oxo-N-(3-(trifluoromethyl)phenyl)-1,4,5,8,9,11-hexahydropyrido[4′,3′:3,4]pyrazolo[5,1-d][1,2,5]oxadiazepine-10(2H)-carboxamide] | 1 to 100
CCc1cccc(NC(=O)N2CCc3nn4c(c3C2)C(=O)N(C)OC(CO)C4)c1 (centres unmarked) [Compound 009, N-(3-ethylphenyl)-4-(hydroxymethyl)-2-methyl-1-oxo-1,4,5,8,9,11-hexahydropyrido[4′,3′:3,4]pyrazolo[5,1-d][1,2,5]oxadiazepine-10(2H)-carboxamide] | 1 to 100
CN1OC(CO)Cn2nc3c(c2C1=O)CN(C(=O)Nc1ccc(F)c(Br)c1F)CC3 (centres unmarked) [Compound 010, N-(3-bromo-2,4-difluorophenyl)-4-(hydroxymethyl)-2-methyl-1-oxo-1,4,5,8,9,11-hexahydropyrido[4′,3′:3,4]pyrazolo[5,1-d][1,2,5]oxadiazepine-10(2H)-carboxamide] | 1 to 100
